Our source for the Tumor cure and logP values is ChEMBL document CHEMBL1133217, “Purpurinimides as photosensitizers: effect of the presence and position of the substituents in the in vivo photodynamic efficacy” (Bioorg Med Chem Lett, 2000).

What is called logP is a log measure of how a compound divides between an organic and an aqueous phase. Read a low logP as lower lipophilicity.

The test system of data set [1] is Mus musculus. As to the kind of experiment: In vivo antitumor activity was determined after administration of compound (1.0 umol/kg) in mice bearing RIF tumors exposed to laser light (135 J/cm**2) on day 1-2. In kind it is functional.
Data set [2] can be described thus: Partition coefficient (logP). In kind it is physicochemical. The conditions noted are these: octanol/water.
The test system of data set [3] is Mus musculus. Description: In vivo antitumor activity was determined after administration of compound (1.0 umol/kg) in mice bearing RIF tumors exposed to laser light (135 J/cm**2) on day 30. In kind it is functional.
The test system of data set [4] is Mus musculus. Description: In vivo antitumor activity was determined after administration of compound (1.0 umol/kg) in mice bearing RIF tumors exposed to laser light (135 J/cm**2) on day 14. In kind it is functional.
Data set [5] deals with Mus musculus. As to the kind of experiment: In vivo antitumor activity was determined after administration of compound (1.0 umol/kg) in mice bearing RIF tumors exposed to laser light (135 J/cm**2) on day 7. In kind it is functional.
For data set [6], the system named is Mus musculus. As to the kind of experiment: In vivo antitumor activity was determined after administration of compound (1.0 umol/kg) in mice bearing RIF tumors exposed to laser light (135 J/cm**2) on day 21. In kind it is functional.
Data set [7] concerns Mus musculus. Description: In vivo antitumor activity was determined after administration of compound (1.0 umol/kg) in mice bearing RIF tumors exposed to laser light (135 J/cm**2) on day 7; No rseponse. In kind it is functional, organism-based.
Data set [8] deals with Mus musculus. As to the kind of experiment: In vivo antitumor activity was determined after administration of compound (1.0 umol/kg) in mice bearing RIF tumors exposed to laser light (135 J/cm**2) on day 14; No rseponse. In kind it is functional, organism-based.
Data set [9] relates to Mus musculus. Description: In vivo antitumor activity was determined after administration of compound (1.0 umol/kg) in mice bearing RIF tumors exposed to laser light (135 J/cm**2) on day 1-2; No rseponse. The class given is functional, organism-based.
Data set [10] relates to Mus musculus. Description: In vivo antitumor activity was determined after administration of compound (1.0 umol/kg) in mice bearing RIF tumors exposed to laser light (135 J/cm**2) on day 21; No rseponse. The class given is functional, organism-based.
In data set [11] the test system is Mus musculus. As to the kind of experiment: In vivo antitumor activity was determined after administration of compound (1.0 umol/kg) in mice bearing RIF tumors exposed to laser light (135 J/cm**2) on day 30; No rseponse. In kind it is functional, organism-based.
Data set [12] has as its system Mus musculus. As to the kind of experiment: In vivo antitumor activity was determined after administration of compound (1.0 umol/kg) in mice bearing RIF tumors exposed to laser light (135 J/cm**2) on day 7; Tumor regrowth. In kind it is functional, organism-based.

`CCCCCCCOC(C)C1=C(C)c2cc3nc(c4c5[nH]c(cc6[nH]c(cc1n2)c(C)c6CC)c(C)c5C(=O)N(CCCCCC)C4=O)[C@@H](CCC(=O)OC)[C@@H]3C` (some centres not stated): the Tumor cure in the data set on Mus musculus [1], in the data set with Mus musculus [3], in the data set on Mus musculus [4], with Mus musculus [5] and in the data set on Mus musculus [6] was 100% throughout. In addition, in data set [2], the logP is recorded as 10.83.
With `CCCCCCCOCc1c2nc(c3c4nc(cc5[nH]c(cc6[nH]c1c(C)c6CC)c(C)c5CC)C(C)=C4C(=O)N(CCCCCC)C3=O)[C@@H](CCC(=O)OC)[C@@H]2C`, the Tumor cure in the data set on Mus musculus [1], in the data set on Mus musculus [3], in the data set with Mus musculus [4], in the data set with Mus musculus [5] and with Mus musculus [6] was 50% each time. In [2], this compound yielded a logP of 10.78.
For `CCCCCCCCOCC1=C(C)c2cc3nc(c4c5[nH]c(cc6[nH]c(cc1n2)c(C)c6CC)c(C)c5C(=O)N(CCCCCC)C4=O)[C@@H](CCC(=O)OC)[C@@H]3C`, the Tumor cure entry with Mus musculus [7], with Mus musculus [8], in the data set on Mus musculus [9], in the data set with Mus musculus [10] and in the data set on Mus musculus [11] was “No response” in each case. Also, the logP in data set [2] was 10.8.
Take `CCCCCCCCCCN1C(=O)c2c3nc(cc4nc(cc5[nH]c(cc6[nH]c2c(c6C)C1=O)c(CC)c5C)C(CC)=C4C)[C@@H](C)[C@@H]3CCC(=O)OC`: the Tumor cure is on record as 100% in the data set with Mus musculus [1] and “Tumour regrowth” in the data set on Mus musculus [12]. For the same compound, in data set [2], the logP amounted to 10.62.
Take `CCCCCCCOC(C)c1c(C)c2cc3[nH]c(cc4nc(c5c6nc(cc1[nH]2)C(C)=C6C(=O)N(CCCCCC)C5=O)[C@@H](CCC(=O)OC)[C@@H]4C)c(C)c3CC` (some centres not stated): the Tumor cure entry in the data set on Mus musculus [7], with Mus musculus [8], in the data set on Mus musculus [9], in the data set with Mus musculus [10] and in the data set on Mus musculus [11] was “No response” in each case. Moreover, the logP in [2] was 10.83.
